# Test results published in patent publication US9980967B1, “Method for overcoming drug resistance of EGFR mutation and cancerous stemness of human non-small cell lung carcinoma” (NATIONAL CHIAO TUNG UNIVERSITY, priority 2017, dated 2018).
# Columns and labels:
# A549 cells = experiment: MTT cell viability assay in A549 cells; format: cell-based, human; conditions: 0~40 μM for 24 hours, compared with Gefitinib
# Procedure: After treatment, the cells were re-cultured in fresh medium for 2 days. The cell viability was analyzed by MTT assays. The results were obtained from three independent experiments and the bar represents the mean±S.E.M. ***p<0.001 indicates significant difference between Gefitinib and SP101 treated samples.
# A549 (ATCC number: CCL-185) was a non-small cell lung carcinoma cell line which expressed wild type EGFR and with K-Ras mutation (G12S). H1975 (ATCC number: CRL-5908) was a non-small cell lung carcinoma cell line which expressed EGFR L858R/T790M mutation. Oct4 and Nanog overexpression in A549-ON presented the properties of cancer stem-like cells, as well as epithelial-mesenchymal transdifferentiation. PLC26 was lung cancer cells that separated from pleural effusion of a clinical lung cancer patient (IRB number: 103-011-E). A549-ON cells were cultured in DMEM medium. A549 and H1975 cells were maintained in RPMI-1640 medium. […]
# Please refer to FIG. 12. […] To compare the cell viability of SP101 and Gefitinib in K-Ras mutation-drug resistant A549 and A549-ON cell lines, the cells were treated with 0˜40 μM SP101 or Gefitinib for 24 hours, and analyzed by MTT assays. […] To determine the effect of SP101 and Gefitinib on the cell viability in cancer stem-like A549-ON cells, the cells were treated with 10˜40 μM SP101 or Gefitinib for 24 hours, and analyzed by MTT assays.
# [1] = tested on: H1975 cells with EGFR (T790M) mutation; experiment: MTT cell viability assay in H1975 cells; format: cell-based, human; conditions: 0~40 μM for 24 hours, re-cultured 2 days, compared with Gefitinib
# Source text: A549 (ATCC number: CCL-185) was a non-small cell lung carcinoma cell line which expressed wild type EGFR and with K-Ras mutation (G12S). H1975 (ATCC number: CRL-5908) was a non-small cell lung carcinoma cell line which expressed EGFR L858R/T790M mutation. Oct4 and Nanog overexpression in A549-ON presented the properties of cancer stem-like cells, as well as epithelial-mesenchymal transdifferentiation. PLC26 was lung cancer cells that separated from pleural effusion of a clinical lung cancer patient (IRB number: 103-011-E). A549-ON cells were cultured in DMEM medium. A549 and H1975 cells were maintained in RPMI-1640 medium. PLC26 cells were maintained in LHC-9 medium. DMEM and RPMI medium were supplemented with 10% fetal bovine serum (FBS), 100 units/ml penicillin, 100 μg/ml streptomycin and sodium bicarbonate. LHC-9 medium was supplemented with 5% FBS and 100 units/ml penicillin. These cells were cultured at 37° C. and 5% CO2 in a humidified incubator.
# Please refer to FIG. 2. The H1975 cells were treated with 0˜40 μM of SP101 or Gefitinib for 24 hours. After treatment, the H1975 cells were re-cultured in fresh medium for 2 days. The cell viability was analyzed by MTT assays. The results were obtained from three independent experiments and the var represents the mean±S.E.M. ***p<0.001 indicates significant difference between Gefitinib and SP101 treated samples.
# [2] = tested on: Survivin and cleaved Caspase 3 in xenograft tumor tissues; experiment: Western blot and IHC of Survivin and cleaved Caspase 3 in xenograft tumor tissues; format: in vivo, nude mice
# Source text: FIG. 11 is a result of IHC immunohistochemistry staining showing that SP101 enhanced Caspase 3 protein level in NSCLC tumor tissues. Representative photographs were by IHC staining the active Caspase 3 proteins in the tumor sections. Positive cells were visualized by DAB staining (brown), counterstain with nuclei by hematoxylin.
# Please refer to FIG. 10. The xenograft tumor tissues from each group were homogenized and the total lysates were subjected to Western blot analysis using specific antibodies, including rabbit anti-Survivin, rabbit anti-cleaved Caspase 3 and mouse anti-actin. Representative immunoblotting data were shown from one of two separate experiments with similar findings. Actin was an internal control protein. SP101 reduced Survivin protein level; meanwhile, SP101 induced the apoptotic protein level of cleaved Caspase 3.
# A549-ON cells = experiment: Annexin V/PI apoptosis flow cytometry in A549-ON cells; format: cell-based, human; conditions: 30 μM
# Procedure: At the end of treatment, apoptosis was measured by Annexin V-PI staining using flow cytometry analysis. The population of Annexin V+/PI− cells represents cells undergoing early apoptosis (low right), whereas the fraction of Annexin V+/PI+ cell are those undergoing late apoptosis (upper right). The representative flow data were shown from one of three separate experiments with similar findings.
# The bar represents the mean±S.E.M. ***p<0.001 indicates significant difference between untreated and SP101 or Gefitinib treated samples.
# We compared the apoptosis levels of SP101 and Gefitinib in cancer stem-like A549-ON cells by Annexin V and PI staining. Please refer to FIG. 19. […] Please refer to FIG. 20. The average of total apoptosis follows SP101 and Gefitinib in the A549-ON cells around 69.29% and 7.59%, respectively.
# [3] = tested on: Survivin and cleaved-form Caspase 3 in H1975 cells; experiment: Western blot and immunofluorescence of Survivin and cleaved Caspase 3 in H1975 cells; format: cell-based, human
# Source text: FIG. 5 is a result of immunofluorescence staining and confocal microscopy. The green color indicated location of Survivin protein excited with 488 nm. The β-tubulin protein was stained with Cy3-labeled mouse anti-β-tubulin antibody (red color). The fluorescence intensity of β-tubulin was excited with 543 nm and the emission was collected in range of 560-580 nm. Blue color indicated location of nuclei following stained with Hoechst 33258 and was excited with 405 nm and the emission was collected in range of 415-450 nm. Overlapping localization is shown in the merged images.
# FIG. 6 is a result of immunofluorescence staining and confocal microscopy. The green color indicated location of cleaved Caspase 3 protein excited with 488 nm. The β-tubulin protein was stained with Cy3-labeled mouse anti-β-tubulin antibody (red color). The fluorescence intensity of β-tubulin was excited with 543 nm and the emission was collected in range of 560-580 nm. Blue color indicated location of nuclei following stained with Hoechst 33258 and was excited with 405 nm and the emission was collected in range of 415-450 nm. Overlapping localization is shown in the merged images.
# Reduction of Survivin protein expression has shown to inhibit tumor growth in NSCLC. Please refer to FIG. 4. H1975 cells with EGFR (T790M) mutation were treated with or without SP101 (20˜30 μM for 24 hours) and analyzed by Western blot. […] Actin was an internal control protein.
# Further, immunofluorescence staining and confocal microscopy were utilized to determine the expression and cell morphology of Survivin and cleaved-form Caspase 3 after treatment with SP101 in H1975 cells with EGFR (T790M) mutation. The cells were treated with or without 30 μM of SP101 for 24 hours. At the end of treatment, the cells were fixed with 4% paraformaldehyde at 37 °C for 1 hour. The fixed cells were incubated with rabbit anti-Survivin antibody or rabbit anti-cleaved caspase-3 antibody at 4 °C overnight. Then the cells were stained with goat anti-rabbit IgG Dylight 488 at 37 °C for 1 hour. Please refer to FIGS. 5 and 6. The green fluorescence (Dylight 488) indicated location of Survivin and cleaved-form Caspase 3. The blue fluorescence (Hoechst 33258) and red fluorescence (Cy3) represented nucleus and β-tubulin respectively. Treatment with 30 μM SP101 for 24 hours, Survivin protein expression was reduced; in addition, the apoptotic bodies and cleaved-form Caspase 3 protein were induced.
# [4] = xenograft tumor tissues, Western blot
# [5] = 30 μM for 24 hours, immunofluorescence and confocal microscopy
# [6] = 20~30 μM for 24 hours, Western blot
compound,measurement,setting,value
"CCCCCCCCCCCCOC(=O)CCC(=O)N1CCN(CCCOc2cc3c(Nc4ccc(F)c(Cl)c4)ncnc3cc2OC)CC1 [SP101, dodecyl 4-(4-(3-(4-(3-chloro-4-fluorophenylamino)-7-methoxyquinazolin-6-yloxy)propyl)piperazin-1-yl)-4-oxobutanoate]",reduction of cell viability,A549 cells,more potent on the reduction of cell viability than Gefitinib
same,cell viability inhibition,[1],significantly higher in the SP101 group than in the Gefitinib group
same,Survivin protein level,[2]; [4],reduced
same,apoptotic protein level of cleaved Caspase 3,[2]; [4],induced
same,"reduction of Survivin protein and increasing of cleaved Caspase 3 protein level, compared with Gefitinib",[2]; [4],more potent
same,active forms of Caspase 3 protein,"[2]; xenografted NSCLC tumors, IHC staining, compared with control and Gefitinib groups",significantly induced
same,"late apoptosis cells, compared with Gefitinib",A549-ON cells,induced more late apoptosis cells than Gefitinib
same,levels of Annexin V+/PI− cells (early apoptosis) and Annexin V+/PI+ cells (late apoptosis),A549-ON cells,significantly increased
same,average of total apoptosis,"A549-ON cells; early and late apoptosis, flow cytometry",around 69.29%
same,Survivin protein expression,[3]; [5],reduced
same,apoptotic bodies and cleaved-form Caspase 3 protein,[3]; [5],induced
same,Survivin protein level,[3]; [6],reduced
same,apoptotic protein level of cleaved-form Caspase 3,[3]; [6],induced
